In US4129737A, “Process for the preparation of an 8-alkyl-5-oxo-5,8-dihydro-pyrido(2,3-d)pyrimidine-6-carboxylic acid” (priority 1972, dated 1978):
In brackets after ≈: the same amount, converted by molar mass. Where two headings read alike, the source gives them in different places.

Assays:
Format in all cases: cell-based
[1] = system: Esch. Coli 95; assay: Minimum inhibitory concentration by agar dilution, Esch. Coli 95; conditions: Escherichia coli, 18 h; agar medium, N.A.; Table II; read-out: minimum inhibitory concentration
Procedure: (§1) (a) Trypticase soya medium (T.S.A.), which is very suitable for culturing the majority of microorganisms; it has the following composition:
(§2) (b) Ordinarily nutrient agar (N.A.), which is less rich in nutrients, corresponds to the following formulation: […]
(§3) Table I gives the minimum inhibitory concentrations (expressed in μg/cm^3) for the various microorganisms tested on each medium.
(§4) The products were tested on three Gram positive microorganisms (1 to 3) […] and on 10 Gram negative microorganisms (4 to 13).
(§5) Table (II) gives the minimum inhibitory concentrations of the compounds of Examples XII to XVI, determined on the agar medium, N.A., and expressed in μg/cm^3.

[2] = system: B. subtilis; assay: Minimum inhibitory concentration by agar dilution, B. subtilis; conditions: Bacillus subtilis, 18 h; agar medium, N.A.; Table II; read-out: minimum inhibitory concentration
Procedure: as §1, §2, §3, §4, §5

[3] = system: Staphylococcus 209 P; assay: Minimum inhibitory concentration by agar dilution, Staphylococcus 209 P; conditions: 18 h, agar medium, N.A., Table II (Staphylococcus 20 P [sic]), read-out: minimum inhibitory concentration
Procedure: as §1, §2, §3, §4, §5

[4] = system: Streptococcus; assay: Minimum inhibitory concentration by agar dilution, Streptococcus Group A; conditions: 18 h; agar medium, N.A.; Table II; read-out: minimum inhibitory concentration
Procedure: as §1, §2, §3, §4, §5

[5] = system: Bord. bronchiseptica; assay: Minimum inhibitory concentration by agar dilution, Bord. bronchiseptica; conditions: Bordetella bronchiseptica, 18 h, read-out: minimum inhibitory concentration
Procedure: as §1, §2, §3, §4, §5

[6] = system: B. pyocyaneus A22; assay: Minimum inhibitory concentration by agar dilution, B. pyocyaneus A22; conditions: Pseudomonas aeruginosa, A22, 18 h; agar medium, N.A.; Table II; read-out: minimum inhibitory concentration
Procedure: as §1, §2, §3, §4, §5

[7] = system: Pr. vulgaris; assay: Minimum inhibitory concentration by agar dilution, Pr. vulgaris; conditions: Proteus vulgaris, 18 h, read-out: minimum inhibitory concentration
Procedure: as §1, §2, §3, §4, §5

[8] = system: Sh. sonnei; assay: Minimum inhibitory concentration by agar dilution, Sh. sonnei; conditions: Shigella sonnei, 18 h; agar medium, N.A.; Table II; read-out: minimum inhibitory concentration
Procedure: as §1, §2, §3, §4, §5

[9] = system: Pr. morganii; assay: Minimum inhibitory concentration by agar dilution, Pr. morganii; conditions: Morganella morganii, 18 h; agar medium, N.A.; Table II; read-out: minimum inhibitory concentration
Procedure: as §1, §2, §3, §4, §5

[10] = system: Pr. mirabilis; assay: Minimum inhibitory concentration by agar dilution, Pr. mirabilis; conditions: Proteus mirabilis, 18 h, read-out: minimum inhibitory concentration
Procedure: as §1, §2, §3, §4, §5

[11] = system: Klebs. pneumoniae; assay: Minimum inhibitory concentration by agar dilution, Klebs. pneumoniae; conditions: Klebsiella pneumoniae, 18 h; agar medium, N.A.; Table II; read-out: minimum inhibitory concentration
Procedure: as §1, §2, §3, §4, §5

[12] = system: Salm. typhi; assay: Minimum inhibitory concentration by agar dilution, Salm. typhi; conditions: Salmonella enterica, 18 h, read-out: minimum inhibitory concentration
Procedure: as §1, §2, §3, §4, §5

| SMILES | MIC [1] [µg/mL] | MIC [2] [µg/mL] | MIC [3] [µg/mL] | MIC [4] [µg/mL] | MIC [5] [µg/mL] | MIC [6] [µg/mL] | MIC ([7]; agar medium, N.A., Table II) [µg/mL] | MIC [8] [µg/mL] | MIC [9] [µg/mL] | MIC [10] [µg/mL] | MIC [11] [µg/mL] | MIC [12] [µg/mL] | MIC ([5]; agar medium, N.A., Table II) [µg/mL] | MIC ([10]; agar medium, N.A., Table II) [µg/mL] | MIC [7] [µg/mL] |
| --- | --- | --- | --- | --- | --- | --- | --- | --- | --- | --- | --- | --- | --- | --- | --- |
| CCCN1CCN(c2ncc3c(=O)c(C(=O)O)cn(CC)c3n2)CC1 [XIII, 2-(4'-Propyl-piperazino)-5-oxo-8-ethyl-5,8-dihydro-pyrido(2,3-d)pyrimidine-6-carboxylic acid] | 50 (≈ 145 µM) | 3.1 (≈ 8.98 µM) | 6.2 (≈ 18 µM) | 6.2 (≈ 18 µM) | 12.5 (≈ 36.2 µM) | 100 (≈ 290 µM) | 6.2 (≈ 18 µM) | 1.6 (≈ 4.63 µM) | 6.2 (≈ 18 µM) | 12.5 (≈ 36.2 µM) | 1.6 (≈ 4.63 µM) | 12.5 (≈ 36.2 µM) | – | – | – |
| C=CCN1CCN(c2ncc3c(=O)c(C(=O)O)cn(CC)c3n2)CC1 [XIV, 2-(4'-Allyl-piperazino)-5-oxo-8-ethyl-5,8-dihydro-pyrido(2,3-d)pyrimidine-6-carboxylic acid] | 50 (≈ 146 µM) | 3.1 (≈ 9.03 µM) | 3.1 (≈ 9.03 µM) | 1.6 (≈ 4.66 µM) | – | 25 (≈ 72.8 µM) | 3.1 (≈ 9.03 µM) | 0.8 (≈ 2.33 µM) | 1.6 (≈ 4.66 µM) | – | 0.4 (≈ 1.16 µM) | 3.1 (≈ 9.03 µM) | 3.1 (≈ 9.03 µM) | 6.2 (≈ 18.1 µM) | – |
| CCn1cc(C(=O)O)c(=O)c2cnc(N3CCN(Cc4ccc(Cl)cc4)CC3)nc21 [XV, 2-(4'-p-Chlorobenzyl-piperazino)-5-oxo-8-ethyl-5,8-dihydro-pyrido(2,3-d)pyrimidine-6-carboxylic acid] | 100 (≈ 234 µM) | 1.6 (≈ 3.74 µM) | 0.8 (≈ 1.87 µM) | 1.6 (≈ 3.74 µM) | – | 50 (≈ 117 µM) | – | 1.6 (≈ 3.74 µM) | 6.2 (≈ 14.5 µM) | 12.5 (≈ 29.2 µM) | 0.8 (≈ 1.87 µM) | 12.5 (≈ 29.2 µM) | 3.1 (≈ 7.24 µM) | – | 12.5 (≈ 29.2 µM) |
| CCn1cc(C(=O)O)c(=O)c2cnc(N3CCN(Cc4ccc(OC)cc4)CC3)nc21 [XVI, 2-(4'-p-Methoxybenzyl-piperazino)-5-oxo-8-ethyl-5,8-dihydro-pyrido(2,3-d)pyrimidine-6-carboxylic acid] | 3.1 (≈ 7.32 µM) | 50 (≈ 118 µM) | 0.4 (≈ 0.945 µM) | 0.8 (≈ 1.89 µM) | – | 12.5 (≈ 29.5 µM) | 6.2 (≈ 14.6 µM) | 0.8 (≈ 1.89 µM) | 1.6 (≈ 3.78 µM) | – | 0.2 (≈ 0.472 µM) | 1.6 (≈ 3.78 µM) | 12.5 (≈ 29.5 µM) | 12.5 (≈ 29.5 µM) | – |
